Data as given in BindingDB's records for doi:10.1021/jm991098z (Friedrich-Alexander University, 2000).

What was measured:
D(4) dopamine receptor = target: T1, D(4) dopamine receptor (Homo sapiens, UniProt P21917); assay: Binding Affinity was tested on relative proportion of High Affinity Site of Dopamine receptor D4.4
T1 sequence (P21917 whole entry): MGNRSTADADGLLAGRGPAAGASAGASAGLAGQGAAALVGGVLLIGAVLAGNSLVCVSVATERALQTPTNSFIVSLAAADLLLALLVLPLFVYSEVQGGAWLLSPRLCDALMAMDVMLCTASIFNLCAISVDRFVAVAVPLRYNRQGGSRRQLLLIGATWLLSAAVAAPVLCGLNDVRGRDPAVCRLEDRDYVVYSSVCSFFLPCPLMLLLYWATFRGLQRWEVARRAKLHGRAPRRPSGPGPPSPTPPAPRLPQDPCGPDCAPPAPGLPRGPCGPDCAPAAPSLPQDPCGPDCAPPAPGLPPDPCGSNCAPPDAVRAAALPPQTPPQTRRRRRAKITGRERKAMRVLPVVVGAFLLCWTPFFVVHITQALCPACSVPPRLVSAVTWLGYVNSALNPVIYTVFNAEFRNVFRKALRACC

D(2) dopamine receptor [1] = target: T2, D(2) dopamine receptor (Homo sapiens, UniProt P14416); assay: Binding Affinity was tested on relative proportion of High Affinity Site of Dopamine receptor D2L
T2 sequence (P14416 whole entry): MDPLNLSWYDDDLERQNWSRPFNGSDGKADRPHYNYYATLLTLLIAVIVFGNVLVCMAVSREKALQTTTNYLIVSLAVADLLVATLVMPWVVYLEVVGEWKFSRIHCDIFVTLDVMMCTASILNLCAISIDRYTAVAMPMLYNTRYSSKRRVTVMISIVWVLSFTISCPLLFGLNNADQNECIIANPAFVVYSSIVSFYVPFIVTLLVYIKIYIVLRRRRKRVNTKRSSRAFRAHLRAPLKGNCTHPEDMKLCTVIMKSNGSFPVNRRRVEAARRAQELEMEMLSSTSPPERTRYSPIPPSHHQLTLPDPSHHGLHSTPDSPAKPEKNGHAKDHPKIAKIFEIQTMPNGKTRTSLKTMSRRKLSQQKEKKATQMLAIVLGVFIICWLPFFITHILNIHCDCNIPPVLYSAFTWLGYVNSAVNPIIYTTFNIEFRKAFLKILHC

D(2) dopamine receptor [2] = target: T2, D(2) dopamine receptor; assay: Binding Affinity was tested on relative proportion of High Affinity Site of Dopamine receptor D2S
[3] = Binding Affinity was tested on relative proportion of High Affinity Site of Dopamine receptor D3

Row | RH (D(4) dopamine receptor) [%] | RH (D(2) dopamine receptor [1]) [%] | RH (D(2) dopamine receptor [2]) [%] | Ki [3] [µM] | Compound
1 | 54 | 16 | 17 | 0.023 | CCCN(CCC)C1CC=C(C#C[Si](C)(C)C)CC1 (configuration not stated) [Dipropyl-(4-trimethylsilanylethynyl-cyclohex-3-enyl)-amine]
2 | 38 | 38 | 34 |  | C#CC1=CCC(N(CCC)CCC)CC1 (configuration not stated) [(4-Ethynyl-cyclohex-3-enyl)-dipropyl-amine]
